Values joined by “and” are separate entries in the source; they are usually repeats but may differ in a detail not shown here. Identical values can stand only once. “Also recorded” adds a separate entry of the source. No end group written: not given here. *: point of attachment. Octanoyl = CCCCCCCC(=O)*
Tests used:
ghrelin receptor mutants = experiment: NanoBiT-G-protein dissociation, ghrelin receptor mutants, HEK293T cells, Gαio-LgBiT/Gγ-SmBiT, 3–5 min; type: cell-based, human; details: for ΔpEC50 (from the WT): single replicates
Procedure: Bars represent differences in calculated potency (pEC50) of ghrelin for mutations relative to the WT ghrelin receptor. Data are colored according to the extent of the effect. […], **P < 0.01 and ***P < 0.001. ns no significant difference, nd not detected. All data were analyzed by one-way analysis of variance (ANOVA) followed by Dunnett’s multiple comparison test, compared with the response of WT (P = 0.002, P = 0.002, P = 0.015, P < 0.001, P < 0.001, P = 0.732, P < 0.001, P = 0.843, P = 0.012, P < 0.001, P = 0.003, P < 0.001, P < 0.001 and P < 0.001 from left to right). […] See also Supplementary Figs. 6 and 7. d Detailed interaction of the octanoyl group of Ser^+3 with the key residues from cavity II and salt bridges between E124^3.33 and R283^6.55 are clearly observed in the ghrelin-bound structure.
For cryo-EM constructs, the full-length of wild-type human ghrelin receptor was subcloned into pFastBac1 vector with an N-terminal FLAG tag and C-terminal 10×His tag. We used the NanoBiT tethering strategy, in which the C-terminus of the ghrelin receptor was directly attached to the LgBiT subunit followed by a TEV protease cleavage site and a double MBP tag. Gβ1 was fused with a C-terminal HiBiT, together with Gγ2 were cloned into pFastBac dual vector. An engineered human Gαo1 with Gαo1 H domain deletion, named miniGαo1 was cloned into pFastBac1 according to published literature. The ghrelin-induced ghrelin receptor activity was measured by NanoBiT-G-protein dissociation assay using a chimeric Gαio protein according to the previous publication except for replacement Gαqo with Gαio[54]. The Gαio were generated by replacing the six amino acids of the C-terminal of Gαi with those from GαoA1. Other constructs including the full-length and various site-directed mutagenesis human ghrelin receptors were cloned into pcDNA3.1 vector for NanoBiT-G-protein dissociation assay. Ghrelin receptor, miniGαo1, and Gβ1γ2 were co-expressed in Sf9 insect cells (Expression System) using the Bac-to-Bac baculovirus expression system (ThermoFisher). The cell pellets were collected by centrifugation 48 h post infection and stored at −80 °C until use.
G-protein activation was detected by a NanoBiT-G-protein dissociation assay. In brief, HEK293T cells were plated in each well of a six-well plate at a concentration of 0.3 million/ml (2 mL per well). Plasmid transfection was performed with a mixture of 400 ng Gαio-LgBiT, 500 ng Gγ-SmBiT, 500 ng Gβ, 600 ng ghrelin receptor by Lipofectamine 2000 (ThermoFisher Scientific) in 200 μL of Opti-MEM (Gibco). After 1 day of transfection, cells in the six-well plate were digested and resuspended in complete medium DMEM (5% FBS, 1% antibiotic) and plated in a 96-well flat-bottomed white microplate. After 24 h, the cells were washed twice with D-PBS and incubated in 40 μL of 5 μM coelenterazine 400a (Maokangbio) solution diluted 0.01% BSA and 5 mM HEPES (pH 7.5)-containing HBSS (assay buffer) for 1 h at room temperature. Baseline luminescence was measured using a luminescent microplate reader (Tecan). Ghrelin (5×, diluted in the assay buffer) was added to the cells (10 μL) and incubated for 3–5 min at room temperature before the second measurement. The ligand-induced signal ratio was normalized to the baseline luminescence and fold-change signals over vehicle treatment were used to show G-protein dissociation response.

[1] = system: wild-type ghrelin receptor; experiment: IP1 accumulation, wild-type ghrelin receptor, HEK293 cells, 37 °C 2 h, Cisbio IP1 kit; type: cell-based, human; details: WT
Procedure: Fig. 1 Overall structures of ghrelin receptors bound to inverse agonist and agonist. a Dose-dependent responses of endogenous agonist ghrelin, inverse agonist PF-05190457 and antagonist compound 21 containing 10 nM ghrelin peptide at wild-type ghrelin receptor measured by cellular IP1 accumulation assays. […] Data represent the mean ± SEM from n = 3 biologically independent experiments performed in triplicate. b View from within the plane of the membrane. The inverse agonist-bound ghrelin receptor is represented as a wheat cartoon, and PF-05190457 is shown as a marine blue sphere. Cryo-EM structure of the agonist ghrelin-bound ghrelin receptor-Gαo1-scFv16 complex. c Ghrelin peptides and receptors are shown as deep salmon spheres and aquamarine cartoons, respectively. The Go heterotrimer and scFv16 are shown in the gray cartoon. d View from the extracellular side of the membrane. […]
IP accumulation was measured using Cisbio IP1 assay kit (Cisbio, 62IPAPEB), which has been previously described. […] IP1 was quantified using Synergy H1 microplate reader (BioTek) with excitation at 320 nm, emission at 620 nm, and 665 nm. The accumulation of IP1 was calculated according to a standard dose–response curve in GraphPad Prism 8 (GraphPad Software). […]

ghrelin: endogenous agonist, 28-amino acid peptide with octanoyl modification at the side chain of Ser+3 (GSS(Octanoyl)FLSPEHQRVQQRKESKKPPAKLQPR; UniProt Q9UBU3 24-51, looked up)
ΔpEC50 (from the WT) (ghrelin receptor mutants; E124A): -1.682 and -1.692 and -1.769
ghrelin-induced activation, effect of mutation (ghrelin receptor mutants; E124^3.33A): almost abolished the activity of the ghrelin receptor
ghrelin-induced activation, effect of mutation (ghrelin receptor mutants; E124^3.33A, listed as ghrelin peptide): remarkably reduced the activation potency
ΔpEC50 (from the WT) (ghrelin receptor mutants; F38A): -0.347 and -0.237 and -0.393
ghrelin-induced activation, effect of mutation (ghrelin receptor mutants; F279^6.51A): decreased the activation potency; also recorded: almost abolished the activity of the ghrelin receptor
ΔpEC50 (from the WT) (ghrelin receptor mutants; F286A): -1.001 and -0.994 and -1.053
ghrelin-induced activation, effect of mutation (ghrelin receptor mutants; F286^6.58A): decreased the receptor activation
ΔpEC50 (from the WT) (ghrelin receptor mutants; F290A): -0.357 and -0.309 and -0.272
ΔpEC50 (from the WT) (ghrelin receptor mutants; F309A): -0.421 and -0.648 and -0.344
ghrelin-induced activation, effect of mutation (ghrelin receptor mutants; F309^7.39 mutant): impaired ghrelin-induced G-protein signaling
ghrelin-induced activation, effect of mutation (ghrelin receptor mutants; F312^7.42A): decreased the activation potency; also recorded: impaired ghrelin-induced G-protein signaling
ΔpEC50 (from the WT) (ghrelin receptor mutants; I178A): -0.256 and -0.542 and -0.472
ghrelin-induced activation, effect of mutation (ghrelin receptor mutants; I178^4.60A): decreased the receptor activation
ΔpEC50 (from the WT) (ghrelin receptor mutants; L181A): -0.146 and -0.068 and -0.114
ΔpEC50 (from the WT) (ghrelin receptor mutants; L210A): -0.704 and -0.734 and -0.866
ghrelin-induced activation, effect of mutation (ghrelin receptor mutants; L210^5.36A): decreased the receptor activation
ΔpEC50 (from the WT) (ghrelin receptor mutants; M213A): -0.105 and -0.084 and -0.1
ΔpEC50 (from the WT) (ghrelin receptor mutants; N305A): -0.736 and -0.893 and -0.758
ghrelin-induced activation, effect of mutation (ghrelin receptor mutants; N305^7.35A): remarkably reduced the activation potency
ΔpEC50 (from the WT) (ghrelin receptor mutants; Q302A): -0.891 and -1.104 and -1.015
ghrelin-induced activation, effect of mutation (ghrelin receptor mutants; Q302^7.32 mutant): impaired ghrelin-induced G-protein signaling
ΔpEC50 (from the WT) (ghrelin receptor mutants; R102A): -0.473 and -0.141 and -0.326
ghrelin-induced activation, effect of mutation (ghrelin receptor mutants; R283^6.55A): almost abolished the activity of the ghrelin receptor
ghrelin-induced activation, effect of mutation (ghrelin receptor mutants; R283^6.55A, listed as ghrelin peptide): almost abolished the efficacy
ΔpEC50 (from the WT) (ghrelin receptor mutants; S123A): -0.29 and -0.222 and -0.285
ΔpEC50 (from the WT) (ghrelin receptor mutants; V214A): -0.199 and -0.412 and -0.206
ghrelin-induced activation, effect of mutation (ghrelin receptor mutants; W276^6.48A): decreased the activation potency; also recorded: almost abolished the activity of the ghrelin receptor
ΔpEC50 (from the WT) (ghrelin receptor mutants; Y106A): -0.423 and -0.136 and -0.417
activation potency [1]: high activation potency as a full agonist

From article PMC8758724, “Molecular mechanism of agonism and inverse agonism in ghrelin receptor” (Nature Communications, 2022)
